ChEMBL document CHEMBL1140822, “Prodrug thiamine analogs as inhibitors of the enzyme transketolase” (Bioorg Med Chem Lett, 2008)
Activity calls are given as the source filed them. The rule behind the calls is not given here.

Experiments:
Transketolase = molecular target: T1, Transketolase (Homo sapiens, UniProt P29401); assay: Inhibition of transketolase in human HCT116 cells; assay type: cell-based, HCT-116
T1 sequence (P29401 whole entry): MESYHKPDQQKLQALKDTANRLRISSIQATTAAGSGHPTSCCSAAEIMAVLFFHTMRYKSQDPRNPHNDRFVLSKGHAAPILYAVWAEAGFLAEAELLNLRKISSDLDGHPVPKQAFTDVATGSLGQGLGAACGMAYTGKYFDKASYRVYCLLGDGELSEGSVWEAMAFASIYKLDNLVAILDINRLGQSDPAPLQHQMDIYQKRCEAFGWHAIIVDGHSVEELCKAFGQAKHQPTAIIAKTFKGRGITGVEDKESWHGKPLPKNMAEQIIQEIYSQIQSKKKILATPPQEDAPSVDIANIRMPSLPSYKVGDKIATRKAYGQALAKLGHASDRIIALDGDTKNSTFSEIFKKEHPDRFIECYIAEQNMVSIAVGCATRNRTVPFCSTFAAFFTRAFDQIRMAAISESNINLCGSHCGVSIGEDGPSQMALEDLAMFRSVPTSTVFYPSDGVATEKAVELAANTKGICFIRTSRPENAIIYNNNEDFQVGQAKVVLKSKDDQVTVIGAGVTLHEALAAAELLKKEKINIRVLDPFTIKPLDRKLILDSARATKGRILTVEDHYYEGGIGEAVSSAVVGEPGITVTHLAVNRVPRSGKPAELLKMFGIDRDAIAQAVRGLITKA

[1] = Mean residence time in rat at 3 mg/kg, iv; assay type: ADME, organism-based; parameters: dose 3 mg/kg, route intravenous; details: in vivo
[2] = Clearance in rat at 3 mg/kg, iv; assay type: ADME, organism-based; parameters: dose 3 mg/kg, route intravenous; details: in vivo
[3] = AUC in rat at 3 mg/kg, iv; assay type: ADME, organism-based; parameters: dose 3 mg/kg, route intravenous; details: plasma
[4] = Volume of distribution at steady state in rat at 3 mg/kg, iv; assay type: ADME, organism-based; parameters: dose 3 mg/kg, route intravenous; details: in vivo, read-out: Vdss
[5] = Cmax in rat at 3 mg/kg, iv; assay type: ADME, organism-based; parameters: dose 3 mg/kg, route intravenous; details: in vivo
Mus musculus = assay: Inhibition of transketolase in BALB/c mouse blood at 100 mg/kg, ip after 72 hrs; assay type: functional, organism-based; parameters: dose 100 mg/kg

Row | SMILES | EC50 (Transketolase) [nM] | other results
1 | C/C(=C(\CCO)SCOC(=O)C(C)(C)C)N(C=O)Cc1ccc(C)nc1N | 116 | MRT [1]: 48.3 h; clearance [2]: 0.63 mL/min/kg; AUC [3]: 79200 ng·h/mL; Vd [4]: 1.83 L/kg; Cmax [5]: 3020 ng/mL
2 | CC(=O)OCC/C(SC(C)=O)=C(\C)N(C=O)Cc1ccc(C)nc1N | 8 | –
3 | CC(=O)N(Cc1ccc(C)nc1N)/C(C)=C(/CCO)SS/C(CCO)=C(/C)N(Cc1ccc(C)nc1N)C(C)=O | 32 | –
4 | C/C(=C1\CCOC(=O)S1)N(C=O)Cc1ccc(C)nc1N | 15 | –
5 | C/C(=C(\CCOC(=O)c1ccccc1)SC(=O)c1ccccc1)N(C=O)Cc1ccc(C)nc1N | 28 | –
6 | Cc1ccc(CN(C=O)/C=C(/CCO)SS/C(=C\N(C=O)Cc2ccc(C)nc2N)CCO)c(N)n1 | 102000 | –
7 | C/C(=C(\CCO)SS/C(CCO)=C(/C)N(C=O)Cc1cccnc1N)N(C=O)Cc1cccnc1N | 479 | –
8 | C/C(=C(\CCO)SS/C(CCO)=C(/C)N(C=O)Cc1ccc(C)nc1N)N(C=O)Cc1ccc(C)nc1N | 12 | Activity (Mus musculus): Active; MRT [1]: 12.7 h; clearance [2]: 32.5 mL/min/kg; AUC [3]: 1590 ng·h/mL; Vd [4]: 19.3 L/kg; Cmax [5]: 1120 ng/mL
9 | C/C(=C(\CCO)SSCCC(=O)O)N(C=O)Cc1ccc(C)nc1N | 52 | –

More lines, main results first:

Row | EC50 (Transketolase) [nM] | SMILES | other results
10 | 13 | C/C(=C(\CCO)SSCCO)N(C=O)Cc1ccc(C)nc1N | –
11 | 18 | Cc1ccc(C[n+]2csc(CCO)c2C)c(N)n1.[Cl-] | MRT [1]: 0.72 h; clearance [2]: 41.3 mL/min/kg; AUC [3]: 1250 ng·h/mL; Vd [4]: 1.98 L/kg; Cmax [5]: 6610 ng/mL
12 | 6000 | CCCCS/C(CCO)=C(/C)N(C=O)Cc1ccc(C)nc1N | –
13 | 8 | C/C(=C(\CCO)SS/C(CCO)=C(/C)N(C=O)Cc1ccc(Cl)nc1N)N(C=O)Cc1ccc(Cl)nc1N | –
14 | 28 | Cc1ccc(C[n+]2c(C)sc(CCO)c2C)c(N)n1 | –
15 | 9 | Cc1c(CCO)sc[n+]1Cc1ccc(Cl)nc1N | –
16 | 9540 | Cc1ccc(C[n+]2csc(CCO)c2)c(N)n1 | –
17 | 110 | Cc1c(CCO)sc[n+]1Cc1cccnc1N | –
